Experimental data from paper PMC6726485 (Nature, 2019).

What was measured:
[1] = target: T1, mitoKATP (endogenous, HeLa mitochondria) (Homo sapiens, UniProt Q9NUT2); test: mitochondrial swelling; assay type: biochemical; settings: KCl swelling buffer, 1 mM MgCl2, 1 uM oligomycin, pH 7.2
T1 sequence (Q9NUT2 26-735): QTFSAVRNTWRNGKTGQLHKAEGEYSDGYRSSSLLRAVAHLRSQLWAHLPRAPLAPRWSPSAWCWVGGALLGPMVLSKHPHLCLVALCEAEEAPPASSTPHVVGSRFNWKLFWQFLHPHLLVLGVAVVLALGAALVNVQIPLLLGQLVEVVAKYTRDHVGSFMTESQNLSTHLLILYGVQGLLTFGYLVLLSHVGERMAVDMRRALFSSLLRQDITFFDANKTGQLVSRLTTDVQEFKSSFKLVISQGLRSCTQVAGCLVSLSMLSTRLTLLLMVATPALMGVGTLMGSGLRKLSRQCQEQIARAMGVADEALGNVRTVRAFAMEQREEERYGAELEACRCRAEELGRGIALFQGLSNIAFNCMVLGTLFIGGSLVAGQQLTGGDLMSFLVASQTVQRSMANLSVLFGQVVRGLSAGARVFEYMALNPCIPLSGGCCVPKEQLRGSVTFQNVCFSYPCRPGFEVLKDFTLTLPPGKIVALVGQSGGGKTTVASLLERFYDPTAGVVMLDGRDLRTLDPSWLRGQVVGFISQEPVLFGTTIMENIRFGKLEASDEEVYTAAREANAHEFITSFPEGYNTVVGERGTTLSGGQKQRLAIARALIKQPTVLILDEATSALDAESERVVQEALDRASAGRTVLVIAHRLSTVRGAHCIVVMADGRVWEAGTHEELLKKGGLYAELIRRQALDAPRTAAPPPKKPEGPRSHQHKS
T1 sequence (Q96ER9 36-411 partner): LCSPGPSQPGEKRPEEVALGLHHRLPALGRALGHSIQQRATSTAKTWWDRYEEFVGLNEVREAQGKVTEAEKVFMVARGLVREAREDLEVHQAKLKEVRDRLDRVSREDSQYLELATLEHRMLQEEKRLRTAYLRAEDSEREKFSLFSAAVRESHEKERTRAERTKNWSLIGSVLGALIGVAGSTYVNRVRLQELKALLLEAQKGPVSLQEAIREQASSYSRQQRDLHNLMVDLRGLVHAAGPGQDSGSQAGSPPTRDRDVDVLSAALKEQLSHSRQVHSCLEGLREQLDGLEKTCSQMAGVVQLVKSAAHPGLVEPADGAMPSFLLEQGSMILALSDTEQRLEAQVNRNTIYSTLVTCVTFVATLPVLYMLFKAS

[2] = target: T2, mitoKATP (endogenous, mouse liver mitochondria) (Mus musculus, UniProt Q9CXJ4); test: […]+ uptake, isolated liver mitochondria; assay type: biochemical; settings: 1 mM MgCl2, 1 uM oligomycin, pH 7.2
T2 sequence (Q9CXJ4 26-717): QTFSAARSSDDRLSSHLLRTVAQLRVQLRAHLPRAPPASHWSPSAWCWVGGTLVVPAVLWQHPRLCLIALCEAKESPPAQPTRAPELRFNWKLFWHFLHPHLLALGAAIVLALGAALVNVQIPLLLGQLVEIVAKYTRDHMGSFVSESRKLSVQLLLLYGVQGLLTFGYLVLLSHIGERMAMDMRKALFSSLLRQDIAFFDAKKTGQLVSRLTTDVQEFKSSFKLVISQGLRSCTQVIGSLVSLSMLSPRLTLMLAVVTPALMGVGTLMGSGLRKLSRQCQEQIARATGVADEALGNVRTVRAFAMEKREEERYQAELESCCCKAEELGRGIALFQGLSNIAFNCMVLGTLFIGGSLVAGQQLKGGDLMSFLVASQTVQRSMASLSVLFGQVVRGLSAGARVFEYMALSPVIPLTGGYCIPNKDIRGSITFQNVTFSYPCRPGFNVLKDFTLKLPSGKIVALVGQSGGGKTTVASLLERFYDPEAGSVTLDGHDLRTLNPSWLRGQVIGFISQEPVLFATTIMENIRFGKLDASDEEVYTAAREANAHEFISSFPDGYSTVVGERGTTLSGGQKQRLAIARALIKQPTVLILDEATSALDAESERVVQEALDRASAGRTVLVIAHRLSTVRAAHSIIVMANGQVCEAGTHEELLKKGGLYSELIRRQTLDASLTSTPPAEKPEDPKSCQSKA
T2 sequence (Q3URS9 36-406 partner): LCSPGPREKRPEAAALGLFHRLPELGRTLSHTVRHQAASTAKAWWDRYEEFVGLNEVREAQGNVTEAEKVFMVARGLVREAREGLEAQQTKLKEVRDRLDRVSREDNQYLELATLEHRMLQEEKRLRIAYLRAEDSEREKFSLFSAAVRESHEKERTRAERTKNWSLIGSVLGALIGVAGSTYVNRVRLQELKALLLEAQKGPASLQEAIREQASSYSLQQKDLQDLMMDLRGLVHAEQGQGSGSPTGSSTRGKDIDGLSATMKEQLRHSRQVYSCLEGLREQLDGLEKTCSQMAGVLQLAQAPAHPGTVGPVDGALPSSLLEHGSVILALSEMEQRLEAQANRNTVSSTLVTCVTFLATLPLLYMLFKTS

Row | SMILES | mitochondrial swelling (A520), isolated HeLa mitochondria ([1]; inhibitor) | 86Rb+ uptake, isolated liver mitochondria ([2]; inhibitor, 2 mM ATP) | mitochondrial swelling (A520), isolated HeLa mitochondria ([1]; activator) | 86Rb+ uptake, isolated liver mitochondria ([2]; activator, 50 uM diazoxide)
1 | Nc1ncnc2c1ncn2[C@@H]1O[C@H](COP(=O)(O)OP(=O)(O)OP(=O)(O)O)[C@@H](O)[C@H]1O [ATP] | ATP decreases and diazoxide increases the swelling rates | neither ATP nor diazoxide were able to alter K^+ fluxes when Mitok was absent |  | 
2 | CC1=NS(=O)(=O)c2cc(Cl)ccc2N1 [diazoxide] |  |  | ATP decreases and diazoxide increases the swelling rates | neither ATP nor diazoxide were able to alter K^+ fluxes when Mitok was absent
